tested on: HBV (2.2.15 cells); test: Antiviral activity in 2.2.15 cells: reduction of viral product accumulation (qPCR of lysates, HBsAg or HBeAg ELISA); format: cell-based, hepatitis B virus (HBV); settings: Hepatitis B virus, 120 h, day 5 post treatment, 50% reduction of viral product accumulation in lysates or supernatants vs no drug controls, readout (qPCR, HBsAg, HBeAg) not specified
Protocol: 2.2.15 cells are passaged upon attaining confluency in DMEM/F12 media in the presence of 10% FBS, Penn/Strep, and 250 ug/mL G418. Novel compounds are 5 fold serially diluted in DMSO and added to 96 well plates containing 35,000 cells/well at a 1:200 dilution so that the final concentration of DMSO is 0.5%. On day 5, post treatment cell lysates and supernatants are harvested for analysis.
Cells are lysed using Agilent Sidestep Lysis buffer, diluted 1:100 and quantified via quantitative real time PCR. Commercially available ELISA kits are used to quantitate the viral proteins HBsAg (Alpco) or HBeAg (US Biological) by following the manufacturer's recommended protocol after diluting samples to match the linear range of their respective assays. Irrespective of readout, compound concentrations that reduce viral product accumulation in the cell lysates or supernatants by 50% relative to no drug controls (EC50) are reported; EC50 ranges are as follows: A<0.1 μM; B 0.1-1 μM; C>1 μM.

Compared with `COCCCCc1cc2c(cc1-c1ccc(F)cc1)-c1cc(=O)c(C(=O)O)cn1[C@H](C(C)(C)C)C2` [Example 134, (S)-6-(tert-butyl)-10-(4-fluorophenyl)-9-(4-methoxybutyl)-2-oxo-6,7-dihydro-2H-pyrido[2,1-a]isoquinoline-3-carboxylic Acid], `COCCCOc1cc2c(cc1-c1ccc(OC(C)C)cc1)-c1cc(=O)c(C(=O)O)cn1[C@H](C(C)(C)C)C2` [Example 38, (S)-6-(tert-butyl)-10-(4-isopropoxyphenyl)-9-(3-methoxypropoxy)-2-oxo-6,7-dihydro-2H-pyrido[2,1-a]isoquinoline-3-carboxylic Acid] is higher in EC50: under 0.1 µM for the first, over 1 µM for the second.

Compared with `Cn1ccc(-c2cc3c(c4c2OC(C)(C)C4)C[C@@H](C(C)(C)C)n2cc(C(=O)O)c(=O)cc2-3)n1` [Example 144, (S)-5-(tert-butyl)-2,2-dimethyl-12-(1-methyl-1H-pyrazol-3-yl)-9-oxo-2,3,4,9-tetrahydro-5H-furo[3,2-f]pyrido[2,1-a]isoquinoline-8-carboxylic Acid], `CC(C)(C)[C@@H]1Cc2c(cc(-c3cnco3)c3c2CCO3)-c2cc(=O)c(C(=O)O)cn21` [Example 83, (S)-5-(tert-butyl)-12-(oxazol-5-yl)-9-oxo-2,3,4,9-tetrahydro-5H-furo[3,2-f]pyrido[2,1-a]isoquinoline-8-carboxylic Acid] is lower in EC50: over 1 µM for the first, under 0.1 µM for the second.

`CCn1cc(-c2cc3c(cc2OCCCOC)C[C@@H](C(C)(C)C)n2cc(C(=O)O)c(=O)cc2-3)cn1` [Example 34, (S)-6-(tert-butyl)-10-(1-ethyl-1H-pyrazol-4-yl)-9-(3-methoxypropoxy)-2-oxo-6,7-dihydro-2H-pyrido[2,1-a]isoquinoline-3-carboxylic Acid] and `COCCCOc1cc2c(cc1-c1cn(C)nc1C)-c1cc(=O)c(C(=O)O)cn1[C@H](C(C)(C)C)C2` [Example 32, (S)-6-(tert-butyl)-10-(1,3-dimethyl-1H-pyrazol-4-yl)-9-(3-methoxypropoxy)-2-oxo-6,7-dihydro-2H-pyrido[2,1-a]isoquinoline-3-carboxylic Acid] cannot be ordered by EC50: under 0.1 µM for the first, under 0.1 µM for the second.

`CC(C)(C)[C@@H]1Cc2c(cc(-c3ccccc3Cl)c3c2CCO3)-c2cc(=O)c(C(=O)O)cn21` [Example 76, (S)-5-(tert-butyl)-12-(2-chlorophenyl)-9-oxo-2,3,4,9-tetrahydro-5H-furo[3,2-f]pyrido[2,1-a]isoquinoline-8-carboxylic Acid] and `COc1ccc(-c2cc3c(c4c2OCC4)C[C@@H](C(C)(C)C)n2cc(C(=O)O)c(=O)cc2-3)cc1` [Example 78, (S)-5-(tert-butyl)-12-(4-methoxyphenyl)-9-oxo-2,3,4,9-tetrahydro-5H-furo[3,2-f]pyrido[2,1-a]isoquinoline-8-carboxylic Acid] cannot be ordered by EC50: under 0.1 µM for the first, under 0.1 µM for the second.

`CC(C)(C)[C@@H]1Cc2c(cc(C3COC3)c3c2CCO3)-c2cc(=O)c(C(=O)O)cn21` [Example 131, (S)-5-(tert-butyl)-12-(oxetan-3-yl)-9-oxo-2,3,4,9-tetrahydro-5H-furo[3,2-f]pyrido[2,1-a]isoquinoline-8-carboxylic Acid] and `CC(C)(C)[C@@H]1Cc2c(cc(N3CCOCC3)c3c2CCO3)-c2cc(=O)c(C(=O)O)cn21` [Example 118, (S)-5-(tert-butyl)-12-morpholino-9-oxo-2,3,4,9-tetrahydro-5H-furo[3,2-f]pyrido[2,1-a]isoquinoline-8-carboxylic Acid] cannot be ordered by EC50: under 0.1 µM for the first, under 0.1 µM for the second.

`COCCCOc1cc2c(cc1-c1ccco1)-c1cc(=O)c(C(=O)O)cn1[C@H]1[C@@H]2COC1(C)C` [Example 125, (3aS,12bR)-10-(furan-2-yl)-11-(3-methoxypropoxy)-3,3-dimethyl-7-oxo-3,3a,7,12b-tetrahydro-1H-furo[3,4-c]pyrido[2,1-a]isoquinoline-6-carboxylic Acid] and `COCCCOc1cc2c(cc1-c1ccsc1)-c1cc(=O)c(C(=O)O)cn1[C@H]1[C@@H]2COC1(C)C` [Example 143, (3aS,12bR)-11-(3-methoxypropoxy)-3,3-dimethyl-7-oxo-10-(thiophen-3-yl)-3,3a,7,12b-tetrahydro-1H-furo[3,4-c]pyrido[2,1-a]isoquinoline-6-carboxylic Acid] cannot be ordered by EC50: under 0.1 µM for the first, under 0.1 µM for the second.

First: CC(C)[C@@H]1Cc2c(cc(-c3ccc(F)c(F)c3)c3c2CCO3)-c2cc(=O)c(C(=O)O)cn21 [Example 114, (S)-12-(3,4-difluorophenyl)-5-isopropyl-9-oxo-2,3,4,9-tetrahydro-5H-furo[3,2-f]pyrido[2,1-a]isoquinoline-8-carboxylic Acid]
Second: CC(C)[C@@H]1Cc2c(cc(-c3ccccc3F)c3c2CCO3)-c2cc(=O)c(C(=O)O)cn21 [Example 108, (S)-12-(2-fluorophenyl)-5-isopropyl-9-oxo-2,3,4,9-tetrahydro-5H-furo[3,2-f]pyrido[2,1-a]isoquinoline-8-carboxylic Acid]
The EC50 of the first is higher: over 1 µM for the first, under 0.1 µM for the second.

Compared with `COCCCOc1cc2c(cc1-c1ccccc1OC(F)(F)F)-c1cc(=O)c(C(=O)O)cn1[C@H](C(C)(C)C)C2` [Example 58, (S)-6-(tert-butyl)-9-(3-methoxypropoxy)-2-oxo-10-(2-(trifluoromethoxy)phenyl)-6,7-dihydro-2H-pyrido[2,1-a]isoquinoline-3-carboxylic Acid], `COCCCOc1cc2c(cc1-c1nnc(C)o1)-c1cc(=O)c(C(=O)O)cn1[C@H](C(C)(C)C)C2` [Example 49, (S)-6-(tert-butyl)-9-(3-methoxypropoxy)-10-(5-methyl-1,3,4-oxadiazol-2-yl)-2-oxo-6,7-dihydro-2H-pyrido[2,1-a]isoquinoline-3-carboxylic Acid] is lower in EC50: over 1 µM for the first, under 0.1 µM for the second.

Compared with `CC(C)[C@@H]1Cc2c(cc(-c3cccnc3)c3c2CCO3)-c2cc(=O)c(C(=O)O)cn21` [Example 105, (S)-5-isopropyl-9-oxo-12-(pyridin-3-yl)-2,3,4,9-tetrahydro-5H-furo[3,2-f]pyrido[2,1-a]isoquinoline-8-carboxylic Acid], `CC(C)[C@@H]1Cc2c(cc(-c3cccc(C(F)(F)F)c3)c3c2CCO3)-c2cc(=O)c(C(=O)O)cn21` [Example 95, (S)-5-isopropyl-9-oxo-12-(3-(trifluoromethyl)phenyl)-2,3,4,9-tetrahydro-5H-furo[3,2-f]pyrido[2,1-a]isoquinoline-8-carboxylic Acid] is higher in EC50: under 0.1 µM for the first, over 1 µM for the second.

Compared with `COCCCOc1cc2c(cc1-c1cccnc1)-c1cc(=O)c(C(=O)O)cn1[C@H]1[C@@H]2COC1(C)C` [Example 128, (3aS,12bR)-11-(3-methoxypropoxy)-3,3-dimethyl-7-oxo-10-(pyridin-3-yl)-3,3a,7,12b-tetrahydro-1H-furo[3,4-c]pyrido[2,1-a]isoquinoline-6-carboxylic Acid], `COCCCOc1cc2c(cc1-c1ccc(Cl)cc1)-c1cc(=O)c(C(=O)O)cn1[C@H]1[C@@H]2COC1(C)C` [Example 137, (3aS,12bR)-10-(4-chlorophenyl)-11-(3-methoxypropoxy)-3,3-dimethyl-7-oxo-3,3a,7,12b-tetrahydro-1H-furo[3,4-c]pyrido[2,1-a]isoquinoline-6-carboxylic Acid] is higher in EC50: under 0.1 µM for the first, over 1 µM for the second.

`COCCCOc1cc2c(cc1-c1c(C)nn(C)c1C)-c1cc(=O)c(C(=O)O)cn1[C@H](C(C)(C)C)C2` [Example 33, (S)-6-(tert-butyl)-9-(3-methoxypropoxy)-2-oxo-10-(1,3,5-trimethyl-1H-pyrazol-4-yl)-6,7-dihydro-2H-pyrido[2,1-a]isoquinoline-3-carboxylic Acid] gave an EC50 of under 0.1 µM.

From patent US11058678B2 (Enanta Pharmaceuticals, Inc., priority 2018, dated 2021)
